From patent US20140073628A1, “BENZOXAZEPINES ASN INHIBITORS OF P13K/M TOR AND METHODS OF THEIR USE AND MANUFACTURE” (priority 2010, published 2014)

How the values were obtained:
PI3Kα = PI3Kα (Homo sapiens, UniProt P42336); assay: PI3K biochemical assay (PI3K-alpha, luciferase-luciferin ATP consumption); conditions: 3 nM enzyme, 1 μM ATP, 10 μM PIP2; percent of ATP consumed
Description: PI3Kα activity was measured as the percent of ATP consumed following the kinase reaction using luciferase-luciferin-coupled chemiluminescence. Reactions were conducted in 384-well white, medium binding microtiter plates (Greiner). Kinase reactions were initiated by combining test compounds, ATP, substrate (PIP2), and kinase in a 20 μL volume in a buffer solution. The standard PI3Kalpha assay buffer was composed 50 mM Tris, pH 7.5, 1 mM EGTA, 10 mM MgCl2, 1 mM DTT and 0.03% CHAPS. The standard assay concentrations for enzyme, ATP, and substrate were 3 nM, 1 μM, and 10 μM, respectively. The reaction mixture was incubated at ambient temperature for approximately 2 h. Following the kinase reaction, a 10 μL aliquot of luciferase-luciferin mix (Promega Kinase-Glo) was added and the chemiluminescence signal measured using a Victor2 or EnVision (Perkin Elmer). Total ATP consumption was limited to 40-60% and IC50 values of control compounds correlate well with literature references. Substituting PI3Kα with PI3Kβ, PI3Kγ, or […], the inhibitory activity of the compounds for the other isoforms of PI3K were measured. For the PI3Kβ and PI3Kδ assays, enzyme concentrations were 10 nM and 4 nM, respectively. For the PI3Kγ assay, enzyme concentration was 40 nM, the incubation time was 1 h, and the concentration of MgCl2 in the assay buffer was 5 mM.

mTOR/GbL/Raptor (mTORC1) = mTOR/GbL/Raptor (mTORC1) (Homo sapiens, UniProt P42345); assay: mTOR/GbL/Raptor (mTORC1) ELISA assay; type: biochemical; conditions: phosphorylation of 4E-BP1; 0.2 nM mTORC1, 10 μM ATP, 50 nM NHis-tagged 4E-BP1
Description: mTOR/GbL/Raptor (mTORC1) ELISA Assay
The measurement of mTORC1 enzyme activity was performed in an ELISA assay format following the phosphorylation of 4E-BP1 protein. All experiments were performed in the 384-well format. Generally, 0.5 μL DMSO containing varying concentrations of the test compound was mixed with 15 μL enzyme solution. Kinase reactions were initiated with the addition of 15 μL of substrates-containing solution. The assay conditions were as follows; 0.2 nM mTORC1, 10 μM ATP and 50 nM NHis-tagged 4E-BP1 in 20 mM Hepes, pH 7.2, 1 mM DTT, 50 mM NaCl, 10 mM MnCl2, 0.02 mg/mL BSA, 0.01% CHAPS, 50 mM β-glycerophosphate. Following an incubation of 120 minutes at ambient temperature, 20 μL of the reaction volume was transferred to a Ni-Chelate-coated 384-well plate. The binding step of the 4E-BP1 protein proceeded for 60 minutes, followed by washing 4 times each with 50 μL of Tris-buffered saline solution (TBS). Anti-phospho-4E-BP1 rabbit-IgG (20 μL, 1:5000) in 5% BSA-TBST (0.2% Tween-20 in TBS) was added and further incubated for 60 minutes. Incubation with a secondary HRP-tagged anti-IgG was similarly performed after washing off the primary antibody (4 washes of 50 μL). Following the final wash step with TBST, 20 μL of SuperSignal ELISA Femto (Pierce Biotechnology) was added and the luminescence measured using an EnVision plate reader.

Sequence of PI3Kα (P42336 whole entry): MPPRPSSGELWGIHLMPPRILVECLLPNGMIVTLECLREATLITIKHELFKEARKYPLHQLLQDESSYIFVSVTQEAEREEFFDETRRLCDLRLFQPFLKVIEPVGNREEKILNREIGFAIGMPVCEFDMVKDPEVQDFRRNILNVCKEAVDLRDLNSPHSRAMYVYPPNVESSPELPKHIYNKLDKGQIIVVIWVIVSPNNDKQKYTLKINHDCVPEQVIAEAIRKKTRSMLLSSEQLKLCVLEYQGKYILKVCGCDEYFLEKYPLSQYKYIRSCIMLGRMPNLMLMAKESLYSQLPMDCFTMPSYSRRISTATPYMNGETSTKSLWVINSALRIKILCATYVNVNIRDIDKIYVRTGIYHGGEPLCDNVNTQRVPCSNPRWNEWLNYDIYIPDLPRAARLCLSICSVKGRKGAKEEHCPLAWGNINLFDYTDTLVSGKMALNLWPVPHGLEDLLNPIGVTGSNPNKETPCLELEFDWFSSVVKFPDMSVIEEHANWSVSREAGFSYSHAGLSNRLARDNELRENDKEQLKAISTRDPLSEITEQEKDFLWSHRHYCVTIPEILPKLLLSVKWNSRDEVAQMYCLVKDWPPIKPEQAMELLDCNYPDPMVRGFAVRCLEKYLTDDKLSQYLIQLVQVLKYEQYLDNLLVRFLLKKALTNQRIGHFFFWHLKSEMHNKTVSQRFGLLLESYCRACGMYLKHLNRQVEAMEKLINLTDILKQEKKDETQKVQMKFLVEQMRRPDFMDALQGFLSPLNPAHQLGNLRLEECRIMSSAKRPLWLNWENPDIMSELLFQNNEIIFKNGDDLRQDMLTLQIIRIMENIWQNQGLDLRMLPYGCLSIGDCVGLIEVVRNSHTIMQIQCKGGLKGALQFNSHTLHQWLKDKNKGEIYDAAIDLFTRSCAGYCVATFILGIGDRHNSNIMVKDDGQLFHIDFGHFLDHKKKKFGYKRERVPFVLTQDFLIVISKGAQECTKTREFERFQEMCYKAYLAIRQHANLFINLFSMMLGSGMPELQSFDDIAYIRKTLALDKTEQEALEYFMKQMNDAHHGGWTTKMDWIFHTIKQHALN
Sequence of PI3Kα (P27986 whole entry partner): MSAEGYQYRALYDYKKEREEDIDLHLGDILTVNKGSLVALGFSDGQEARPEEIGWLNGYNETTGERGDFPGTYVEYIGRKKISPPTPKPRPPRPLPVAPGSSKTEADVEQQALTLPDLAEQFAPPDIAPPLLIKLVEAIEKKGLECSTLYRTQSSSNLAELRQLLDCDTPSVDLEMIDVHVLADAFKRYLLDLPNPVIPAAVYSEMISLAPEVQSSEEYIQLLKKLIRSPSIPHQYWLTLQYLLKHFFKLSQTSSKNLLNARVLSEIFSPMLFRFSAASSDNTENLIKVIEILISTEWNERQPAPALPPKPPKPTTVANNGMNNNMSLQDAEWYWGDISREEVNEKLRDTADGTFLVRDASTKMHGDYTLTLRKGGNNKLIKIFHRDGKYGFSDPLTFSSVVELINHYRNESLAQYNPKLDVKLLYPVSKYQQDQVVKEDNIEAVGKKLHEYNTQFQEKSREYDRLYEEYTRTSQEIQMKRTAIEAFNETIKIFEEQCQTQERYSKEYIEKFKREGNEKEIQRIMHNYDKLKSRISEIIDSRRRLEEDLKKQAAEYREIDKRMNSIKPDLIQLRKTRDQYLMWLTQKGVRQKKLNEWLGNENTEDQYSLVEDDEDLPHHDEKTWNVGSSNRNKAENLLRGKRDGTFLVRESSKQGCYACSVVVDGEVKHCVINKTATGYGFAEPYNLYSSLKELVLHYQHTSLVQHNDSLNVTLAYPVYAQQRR

| Structure (SMILES) | IC50 (PI3Kα) [µM] | IC50 (mTOR/GbL/Raptor (mTORC1)) [µM] |
| --- | --- | --- |
| Cc1nc2cc(-c3ccc4c(c3)CN(c3nc(NC(C)C)nc(C)c3Cc3ccc(F)cc3)CCO4)ccc2[nH]1 [Compound 19, 5-[(4-fluorophenyl)methyl]-4-methyl-6-[7-(2-methyl-1H-benzimidazol-5-yl)-2,3-dihydro-1,4-benzoxazepin-4(5H)-yl]-N-(1-methylethyl)pyrimidin-2-amine] | 0.5 to 2.5 | 0.1 to 0.5 |
| Cc1cc(N2CCOc3ccc(-c4ccc5[nH]cnc5c4)cc3C2)nc(N)n1 [Compound 43, 4-[7-(1H-benzimidazol-5-yl)-2,3-dihydro-1,4-benzoxazepin-4(5H)-yl]-6-methylpyrimidin-2-amine] | 0.5 to 2.5 | 0.5 to 2.5 |
| Cc1nc(N)nc(N2CCOc3ccc(-c4cnc5[nH]c(N)nc5c4)cc3C2)c1C(C)C [Compound 46, 6-{4-[2-amino-6-methyl-5-(1-methylethyl)pyrimidin-4-yl]-2,3,4,5-tetrahydro-1,4-benzoxazepin-7-yl}-3H-imidazo[4,5-b]pyridin-2-amine] |  | ≤ 0.1 |
| Cc1nc(N)nc(N2CCOc3ccc(-c4cnc5[nH]cnc5c4)cc3C2)c1Cc1ccc(F)cc1 [Compound 47, 5-[(4-fluorophenyl)methyl]-4-[7-(3H-imidazo[4,5-b]pyridin-6-yl)-2,3-dihydro-1,4-benzoxazepin-4(5H)-yl]-6-methylpyrimidin-2-amine] |  | ≤ 0.1 |
| Cc1nc(N)nc(N2CCOc3ccc(-c4cnc5[nH]cnc5c4)cc3C2)c1C(C)C [Compound 52, 4-[7-(3H-imidazo[4,5-b]pyridin-6-yl)-2,3-dihydro-1,4-benzoxazepin-4(5H)-yl]-6-methyl-5-(1-methylethyl)pyrimidine-2-amine] |  | ≤ 0.1 |

Further lines, results first:

| IC50 (PI3Kα) [µM] | IC50 (mTOR/GbL/Raptor (mTORC1)) [µM] | Structure (SMILES) |
| --- | --- | --- |
|  | ≤ 0.1 | Cc1nc2cc(-c3ccc4c(c3)CN(c3nc(N)nc(C)c3Cc3ccc(F)cc3)CCO4)cnc2[nH]1 [Compound 48, 5-[(4-fluorophenyl)methyl]-4-methyl-6-[7-(2-methyl-3H-imidazo[4,5-b]pyridin-6-yl)-2,3-dihydro-1,4-benzoxazepin-4(5H)-yl]pyrimidin-2-amine] |
|  | 0.5 to 2.5 | COc1ccc2c(N3CCOc4ccc(-c5cnc6[nH]cnc6c5)cc4C3)nc(CN(C)C)nc2c1 [Compound 49, 1-{4-[7-(3H-imidazo[4,5-b]pyridin-6-yl)-2,3-dihydro-1,4-benzoxazepin-4(5H)-yl]-7-(methyloxy)quinazolin-2-yl}-N,N-dimethylmethanamine] |
|  | ≤ 0.1 | Cc1nc2cc(-c3ccc4c(c3)CN(c3nc(N)nc(C)c3C(C)C)CCO4)cnc2[nH]1 [Compound 50, 4-methyl-5-(1-methylethyl)-6-[7-(2-methyl-3H-imidazo[4,5-b]pyridin-6-yl)-2,3-dihydro-1,4-benzoxazepin-4(5H)-yl]pyrimidin-2-amine] |
|  | ≤ 0.1 | Cc1nc2ccc(-c3cc(F)c4c(c3)CN(c3nc(N)nc(C)c3C(C)C)CCO4)cc2[nH]1 [Compound 51, 4-[9-fluoro-7-(2-methyl-1H-benzimidazol-6-yl)-2,3-dihydro-1,4-benzoxazepin-4(5H)-yl]-6-methyl-5-(1-methylethyl)pyrimidin-2-amine] |
